Common to all, as to type: cell-based
One test deals with YAP/TAZ. As to the kind of experiment: Western blot of YAP/TAZ. On the procedure:
FIGS. 10A and 10B show the western blot results from primary glioblastoma cell lines 612 (FIG. 10A) (these cells were a kind gift of Dr. Quinones-Hinojosa (School of Medicine, Johns Hopkins University), who obtained the cells from cancer patients) and GS1049 (FIG. 10B) that were incubated for 48 h with Ac4Glc2Bz at the indicated concentrations. Each cell line was probed for the proteins Yes Associated Protein (YAP), transcriptional coactivator with PDZ-binding motif (TAZ), phosphorylated Yes Associated Protein (p-YAP), and Glyceraldehyde 3-phosphate dehydrogenase (GAPDH control). […] YAP/TAZ are two key mediators that act to […] the Hippo pathway, which helps to promote oncogenesis, metastasis, and cancer cell survival in circulation. Until now, there were no known small molecule pharmacological agents capable of decreasing YAP/TAZ expression. These studies helped illustrate the extraordinarily powerful potential of UAP1/2 inhibitors as truly disease modifying candidates, especially in cancer.
In addition, in FIG. 22B, YAP western blot results from Ac4Glc2Bz cells were obtained where shRNA knockdown of UAP1 was performed using lentiviral methods in PANC-1 cells (n=3). Similar to above, UAP1 in PANC-1 cells was knocked down using lentiviral vectors followed by 1 week selection using puromycin. […]

Test [1] concerns O-GlcNAc protein modification. The experiment in a line: Western blot of O-GlcNAcylation with CTD110.6. The note with it: 612, GS1049, SW1990 and PANC-1 cells, 40 μM or 60 μM, 48 h. On the procedure: Exemplary CTD110.6 protein expression results were obtained for 612 cells (FIG. 17A); GS1049 cells (FIG. 17B); SE1990 cells (FIG. 17C); and PANC-1 cells (FIG. 17D) with either 40 μM or 60 μM Ac4Glc2Bz.
For example, as shown in FIG. 17A-17D, Ac4Glc2Bz could change O-GlcNAcylation in a dose-dependent manner in each cell of 612 cells (FIG. 17A); GS1049 (FIG. 17B); SW1990 (FIG. 17C) and PANC-1 (FIG. 17D). In particular, the band intensities of CTD110.6 (anti-O-GlcNAc antibody) from each treated cell decreased as the concentrations of Ac4Glc2Bz treatment were increased. 3×10^5 cells were plated in 6-well plates, with 2 wells per condition tested as indicated in FIG. 17A-D. After 48 h, proteins were collected after freezing for 15 minutes at −80° C. using extraction buffer consisting of 20 mM TrisHCl, pH 7.5, 1% v/v NP-40, 2 mM EDTA, 0.1 mM phenylmethylsulfonyl fluoride, phosphatase inhibitor cocktails 2 and 3 (1×) (SIGMA), ThiametG (10 nM) (Cayman Chemical), β-hexosaminidase inhibitor (5 μM) (Millipore), sodium fluoride (1 mM), and β-glycerophosphate (1 mM). The lysed cells were scraped, collected, and incubated on ice for 20 minutes while vortexing for 5-10 s ever 5 minutes. Samples were sonicated for 5 seconds and then centrifuged at 14,000 RPM for 20 minutes at 4° C. The supernatant was removed, normalized to 1 mg/mL, and 20 μg was loaded onto a 7.5% SDS-PAGE gel. […]

For test [2], the system named is N-glycans of SW1990 cells. As to the kind of experiment: Mass spectrometry of cell surface N-glycans in SW1990 cells. Particulars: 100 μM. On the procedure:
FIGS. 18A-18B present mass spectrometry results showing levels of N-glycans (lower molecular weight glycans) and high molecular weight glycans following treatments with Ac4Glc2Bz (100 μM) in SW1990 cells.
(a) Cell surface N-Glycans. After two days of incubation with analog (a length of time sufficient to observe maximal “metabolic glycoengineering” effects (Biotechnol Bioeng 85, 394-405 (2004); Biotechnol Bioeng 109, 992-1006 (2012); Mol Cell Proteomics, 10.1074/mcp.M1112.017558 (2012); Glycobiology 19, 1382-1401 (2009); Nature Protocols 2, 1585-1602 (2007)), cells treated with PNGaseF, N-glycans were collected, and analyzed by following a recently developed protocol that optimizes sialic acid detection and quantification (Anal Chem 85, 3606-3613 (2013)). As previously developed, automated methods were used to analyze mass spectroscopy data to detect phenyl-modified sugars in glycan structures. This analysis was valuable to monitor whether any phenyl-modified analog was biosynthetically processed (instead or in addition to inhibiting UAP) and incorporated into cellular glycans.
For example, as shown in FIGS. 18A-18B, SW1990 cells were treated with Ac4Glc2Bz (100 μM), and the cell extracts were analyzed by mass spectrometry.

The next test deals with global DNA methylation. The experiment in a line: Global DNA methylation assay in SW1990 cells. How it is done: In 6-well plates, SW1990 cells were seeded (3×10^5) and were treated with Ac4Glc2Bz at the indicated concentrations. DNA from treated cells was isolated using a FitAmp Blood and Cultured Cell DNA Extraction Kit (Epigentek) followed by colormetric determination of global methylation using a MethylFlash™ Methylated DNA Quantification Kit (Epigentek). […] For instance, by reducing flux through the HBP, UAP inhibitors could exert epigenetic effects, as global DNA methylation was increased as shown in FIG. 23. Although hypermethylation of promoter sites of tumor suppressors might be common in cancer at a global scale, cancer cells are almost always characterized by hypomethylation, which the current UAP inhibitors appeared to be reversing (Epigenomics. 2009 December; 1(2): 239-259; Oncogene. 12 Aug. 2002, Volume 21, Number 35, Pages 5400-5413).

Entries after “also recorded” stand apart in the source; their conditions may differ.

Regarding `CC(=O)OCC1OC(OC(C)=O)[C@@H](NC(=O)c2ccccc2)[C@@H](OC(C)=O)[C@@H]1OC(C)=O` (stereo partly drawn) [Ac4Glc2Bz], in the test with YAP/TAZ (as described in Example 5), the “protein expression of YAP/GAPDH” value is on record as “reduce protein expression of YAP/GAPDH in a dose-dependent manner”. Moreover, the “protein expression of YAP/TAZ” value in the test with YAP/TAZ (primary glioblastoma cell lines 612 and GS1049, 48 h) was “virtually abolished”. The “O-GlcNAcylation, band intensities of CTD110.6” value in test [1] is on record as “decreased; also recorded: changed”. In test [2], the “amplitude of peaks for N-glycans (lower molecular weight glycans)” value is “not significantly reduced” and the “peaks for high molecular weight glycans” value is “quantitative changes were identified”. In addition, the “global DNA methylation” value in the test on global DNA methylation is listed as “promote global DNA methylation at higher doses”.

(Values after patent US11827663B2, “Use of UAP inhibitors to inhibit flux through the hexosamine biosynthetic pathway” (The Johns Hopkins University, priority 2014, dated 2023).)
